Assay results taken from BindingDB's records for doi:10.1016/j.chembiol.2011.05.014 (The University of Chicago, 2011).
pIC50: −log10 of the molar value.

Target: T1, HTH-type transcriptional regulator MgrA (Staphylococcus aureus, UniProt P0C1S0)
T1 sequence (P0C1S0 whole entry): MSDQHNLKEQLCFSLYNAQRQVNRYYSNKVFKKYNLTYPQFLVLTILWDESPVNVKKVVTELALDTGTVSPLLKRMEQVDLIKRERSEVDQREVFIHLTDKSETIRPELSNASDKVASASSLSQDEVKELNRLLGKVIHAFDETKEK
Test: Biochemical Assay
Conditions: pH 7.4
Description: A fluorescence anisotropy (FA)-based biochemical assay that monitors MgrA-DNA binding. To determine the binding affinity of MgrA to the labeled DNA, different amounts of MgrA were added into the 96-well format plate.

Cc1ccc(C)n1[C@@H](CC(=O)O)c1ccc2c(c1)OCO2 [MgrA inhibitor, 2]
pIC50: 4.52
